Values of other authors in patent publication US10272261B2, “Methods and compositions for treating ocular glaucoma” (Massachusetts Eye and Ear Infirmary, priority 2004, dated 2019).

Test system: pigmented rabbits
Settings: pigmented rabbits compared with albino rabbits; cited from earlier work

chloro-aluminum sulfonated phthalocyanine [CASPc]
duration of IOP reduction by ciliary body PDT: lasted a relatively shorter period than that of albino rabbits
